Laboratory results: the NIST ThermoML archive (doi:10.1021/acs.jced.7b00106)

Settings: Liquid, Hot wire method

FC(F)(F)/C=C/Cl [(E)-1-chloro-3,3,3-trifluoroprop-1-ene]
Settings | thermal conductivity [W/m/K]
203.56 K, 10316 kPa | 0.1156
203.65 K, 10337 kPa | 0.1151
203.67 K, 219 kPa | 0.1135
203.67 K, 10365 kPa | 0.116
203.68 K, 5190 kPa | 0.1132
203.68 K, 10370 kPa | 0.1166
203.76 K, 231 kPa | 0.113
203.76 K, 10344 kPa | 0.1159
203.77 K, 5194 kPa | 0.1133
203.77 K, 10372 kPa | 0.1156
203.91 K, 10339 kPa | 0.1163
204.02 K, 228 kPa | 0.1135
204.02 K, 5185 kPa | 0.114
204.02 K, 10301 kPa | 0.1153
204.02 K, 10366 kPa | 0.1154
204.02 K, 10378 kPa | 0.1158
204.12 K, 10382 kPa | 0.1152
204.13 K, 232 kPa | 0.1125
204.13 K, 5176 kPa | 0.1137
204.13 K, 10374 kPa | 0.1153
204.3 K, 10296 kPa | 0.1148
204.4 K, 223 kPa | 0.1124
204.4 K, 5171 kPa | 0.1142
204.4 K, 10360 kPa | 0.1158
204.41 K, 10375 kPa | 0.1154
204.43 K, 10300 kPa | 0.1153
204.53 K, 10368 kPa | 0.1152
204.54 K, 5176 kPa | 0.1138
204.54 K, 10353 kPa | 0.115
204.55 K, 227 kPa | 0.1121
204.71 K, 10305 kPa | 0.115
204.81 K, 10351 kPa | 0.1146
204.81 K, 10361 kPa | 0.1153
204.82 K, 232 kPa | 0.1125
204.82 K, 5179 kPa | 0.1141
204.88 K, 10317 kPa | 0.1155
204.97 K, 10365 kPa | 0.1148
204.98 K, 5182 kPa | 0.1135
204.98 K, 10343 kPa | 0.1151
204.99 K, 223 kPa | 0.1121
205.17 K, 10310 kPa | 0.1155
205.25 K, 10392 kPa | 0.1152
205.26 K, 10349 kPa | 0.1152
205.27 K, 5170 kPa | 0.1139
205.29 K, 230 kPa | 0.1124
205.36 K, 10304 kPa | 0.1149
205.44 K, 10383 kPa | 0.1147
205.45 K, 10380 kPa | 0.1147
205.46 K, 5164 kPa | 0.1134
205.48 K, 239 kPa | 0.1121
222.19 K, 65394 kPa | 0.1242
222.21 K, 54365 kPa | 0.1216
222.27 K, 44671 kPa | 0.1193
222.28 K, 65396 kPa | 0.1238
222.3 K, 35555 kPa | 0.1171
222.32 K, 26424 kPa | 0.1148
222.32 K, 54366 kPa | 0.1215
222.35 K, 17783 kPa | 0.1123
222.37 K, 44672 kPa | 0.1196
222.39 K, 449 kPa | 0.1078
222.39 K, 8723 kPa | 0.1103
222.4 K, 35559 kPa | 0.1171
222.42 K, 26428 kPa | 0.1148
222.45 K, 17781 kPa | 0.1124
222.49 K, 8727 kPa | 0.1099
222.5 K, 449 kPa | 0.1068
222.54 K, 65394 kPa | 0.1248
222.57 K, 54367 kPa | 0.1222
222.62 K, 44672 kPa | 0.1196
222.67 K, 35561 kPa | 0.1177
222.69 K, 54366 kPa | 0.1219
222.7 K, 26430 kPa | 0.1145
